Results taken from patent publication US11401278B2, “Macrocyclic indole derivatives” (The Broad Institute, Inc., priority 2017, dated 2022).
Values joined by “and” are separate entries in the source; they are usually repeats but may differ in a detail not shown here. Equal values may be shown once. Where a name gives a salt, the structure may show the parent alone. Read-outs that look alike come from different tables or passages of the source.

How the values were obtained:
BCL-2 = BCL-2 (Homo sapiens (Human), UniProt P10415); assay: Protein-protein interaction assay BCL-2/Bad BH3 peptide (BCL-2 assay, TR-FRET); type: binding; conditions: His-BCL-2 / Bad BH3 peptide, median
Sequence of BCL-2 (P10415 other isoform, or with tags, fused parts or gaps): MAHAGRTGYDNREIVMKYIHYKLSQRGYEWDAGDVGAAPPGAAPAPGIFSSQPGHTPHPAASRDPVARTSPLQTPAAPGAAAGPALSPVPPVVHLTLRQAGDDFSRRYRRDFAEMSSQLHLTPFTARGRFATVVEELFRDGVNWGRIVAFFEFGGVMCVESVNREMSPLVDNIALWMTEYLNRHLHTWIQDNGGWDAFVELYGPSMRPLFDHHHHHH
Outline: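 His-BCL-2 (1-211, E. coli) at 1 nM preincubated 10 min at 22 °C with compound (11 concentrations, 0.1 nM-20 μM, duplicates), then 1 nM biotinylated Bad BH3 peptide added. After 1 h at 22 °C plus overnight at 4 °C, TR-FRET 665/620 ratio normalised to DMSO and no-BCL-2 controls, IC50 from 4-parameter fit.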

SUDHL5 [1] = assay: Antiproliferation assay (Assay 7), SUDHL5; type: cell-based; conditions: CellTiter-Glo, median, read-out: Antiproli SUDHL5 [M] (median) IC50
Outline: (§1)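 Proliferation was read by CellTiter-Glo luminescence after 72 hours of compound treatment at 37° C. The read was referenced to a parallel plate measured at time zero.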

SUDHL5 [2] = assay: Induction of caspase-3/7 activity (Assay 4), SUDHL5; type: cell-based; conditions: caspase-3/7 induction, median
Outline: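 DLBCL cells were exposed to compounds for 3 hours at 37 °C, then caspase-3/7 activation was read with Caspase-Glo 3/7 reagent. After subtracting medium-only background, EC50s were derived with fixed C0=1 and the reference compound's maximal induction as plateau.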

AMO-1 = assay: Antiproliferation assay (Assay 7), AMO-1; type: cell-based; conditions: CellTiter-Glo, several values per example, read-out: Antiproli AMO-1 [M] IC50
Outline: as §1

SMILES | IC50 (BCL-2) [µM] | IC50 (SUDHL5 [1]; Homo sapiens, SU-DHL-5, 72 h) [M] | EC50 (SUDHL5 [2]; Homo sapiens, SU-DHL-5, 3 h) [nM] | IC50 (AMO-1; 72 hours) | IC50 (AMO-1; Homo sapiens, AMO1, 72 h) [M] | IC50 (SUDHL5 [1]; 72 hours) [M] | EC50 (SUDHL5 [2]; 3 hours) [nM]
CCc1c2c(nn1C)CN(CCN1CCCCC1)S(=O)(=O)CCCn1c(C(=O)O)c(CCCOc3cccc4ccccc34)c3cccc-2c31 (racemic) [Example 14, (rac)-12-Ethyl-11-methyl-1-(3-(naphthalen-1-yloxy)propyl)-8-(2-(piperidin-1-yl)ethyl)-4,5,6,8,9,11-hexahydropyrazolo[3′,4′:4,5][1,2,8]thiadiazacycloundecino[6,7,8-hi]indole-2-carboxylic acid 7,7-dioxide 2,2,2-trifluoroacetic acid salt] | > 20 | 3.3e-06 | 4600 | 1.7e-05 M | 1.9e-05 |  | 
Cc1c2c(nn1C)CN(C)S(=O)(=O)CCCn1c(C(=O)O)c(CCCOc3cccc4c3CCCC4)c3ccc(F)c-2c31 (racemic) [Example 29, (rac)-13-Fluoro-8,11,12-trimethyl-1-(3-((5,6,7,8-tetrahydronaphthalen-1-yl)oxy)propyl)-5,6,9,11-tetrahydro-4H,8H-pyrazolo[3′,4′:4,5][1]thia[2,8]diazacycloundecino[6,7,8-hi]indole-2-carboxylic acid 7,7-dioxide] | > 20 | 5e-07 | 1500 |  | 7.1e-06 |  | 
Cc1c2c(nn1C)CN(C1CC1)S(=O)(=O)CCCn1c(C(=O)O)c(CCCOc3cccc4cc(F)ccc34)c3ccc(Cl)c-2c31 (single isomer, unassigned; enantiomer 2) [Example 43, (+)-4-chloro-14-cyclopropyl-7-{3-[(6-fluoro-1-naphthyl)oxy]propyl}-2,3-dimethyl-11,12,14,15-tetrahydro-2H,10H-pyrazolo[3′,4′:4,5][1,2,8]thiadiazacycloundecino[6,7,8-hi]indole-8-carboxylic acid 13,13-dioxide N-diethylamine salt (Enantiomer 2)] | > 20 |  |  | 1.1e-05 M |  | 7e-06 | 6100
CCc1c2c(nn1C)CN(C)S(=O)(=O)CCCn1c(C(=O)O)c(CCCOc3cccc4c3CCC4)c3ccc(Cl)c-2c31 [Example 21, (rac)-13-Chloro-1-(3-((2,3-dihydro-1H-inden-4-yl)oxy)propyl)-12-ethyl-8,11-dimethyl-5,6,9,11-tetrahydro-4H,8H-pyrazolo[3′,4′:4,5][1]thia[2,8]diazacycloundecino[6,7,8-hi]indole-2-carboxylic acid 7,7-dioxide] | > 20 | 5.3e-07 | 650 |  | 2.6e-06 |  | 
CCc1c2c(nn1C)CN(C)S(=O)(=O)CCCn1c(C(=O)O)c(CCCOc3cccc4c3CCCC4)c3ccc(Cl)c-2c31 [Example 23, (rac)-13-Chloro-12-ethyl-8,11-dimethyl-1-(3-((5,6,7,8-tetrahydronaphthalen-1-yl)oxy)propyl)-4,5,6,8,9,11-hexahydropyrazolo[3′,4′:4,5][1,2,8]thiadiazacycloundecino[6,7,8-hi]indole-2-carboxylic acid 7,7-dioxide] | 15 | 6.9e-07 | 1300 |  | 3.8e-06 |  | 
Cc1cc(OCCCc2c(C(=O)O)n3c4c(c(F)ccc24)-c2c(nn(C)c2C)CN(C)S(=O)(=O)CCC3)cc(C)c1Cl (racemic) [Example 28, (rac)-1-(3-(4-Chloro-3,5-dimethylphenoxy)propyl)-13-fluoro-8,11,12-trimethyl-5,6,9,11-tetrahydro-4H,8H-pyrazolo[3′,4′:4,5][1]thia[2,8]diazacycloundecino[6,7,8-hi]indole-2-carboxylic acid 7,7-dioxide] | > 20 | 1.2e-06 | 2000 |  | 1.2e-05 |  | 
CCc1c2c(nn1C)CN(C)S(=O)(=O)CCCn1c(C(=O)O)c(CCCOc3cc(C)c(Cl)c(C)c3)c3ccc(Cl)c-2c31 [Example 22, (rac)-13-Chloro-1-(3-(4-chloro-3,5-dimethylphenoxy)propyl)-12-ethyl-8,11-dimethyl-4,5,6,8,9,11-hexahydropyrazolo[3′,4′:4,5][1,2,8]thiadiazacycloundecino[6,7,8-hi]indole-2-carboxylic acid 7,7-dioxide] | > 20 | 1.9e-06 | 1800 |  | 2.6e-06 |  | 
CCc1c2c(nn1C)CN(C)S(=O)(=O)CCCn1c(C(=O)O)c(CCCOc3cccc4ccccc34)c3ccc(F)c-2c31 (racemic) [Example 31, (rac)-12-Ethyl-13-fluoro-8,11-dimethyl-1-(3-(naphthalen-1-yloxy)propyl)-5,6,9,11-tetrahydro-4H,8H-pyrazolo[3′,4′:4,5][1]thia[2,8]diazacycloundecino[6,7,8-hi]indole-2-carboxylic acid 7,7-dioxide] | > 20 | 5.3e-07 | 800 | 3.9e-06 M | 4.2e-06 |  | 
CCc1c2c(nn1C)CN(CC)S(=O)(=O)CCCn1c(C(=O)O)c(CCCOc3cccc4cc(F)ccc34)c3ccc(Cl)c-2c31 (single isomer, unassigned; enantiomer 1) [Example 57, (+)-4-chloro-3,14-diethyl-7-{3-[(6-fluoronaphthalen-1-yl)oxy]propyl}-2-methyl-13,13-dioxo-10,11,12,13,14,15-hexahydro-2H-13lambda^6-pyrazolo[3′,4′:4,5][1,2,8]thiadiazacycloundecino[6,7,8-hi]indole-8-carboxylic acid N-ethylethanamine Salt (Enantiomer 1)] | 12 |  |  | 1.6e-07 M and 1.3e-07 M |  | 5.8e-08 | 120
CCc1c2c(nn1C)CN(C)S(=O)(=O)CCCn1c(C(=O)O)c(CCCOc3cccc4cc(F)ccc34)c3ccc(Cl)c-2c31 (single isomer, unassigned; enantiomer 1) [Example 36, (+)-4-chloro-3-ethyl-7-{3-[(6-fluoronaphthalen-1-yl)oxy]propyl}-2,14-dimethyl-13,13-dioxo-10,11,12,13,14,15-hexahydro-2H-13lambda^6-pyrazolo[3′,4′:4,5][1,2,8]thiadiazacycloundecino-[6,7,8-hi]indole-8-carboxylic acid (Enantiomer 1)] | 18 |  |  | 4.5e-07 M and 5.3e-07 M |  | 1.4e-07 | 85
